Experiments:
[1] = test system: diastolic congestive heart failure patients; test: Echocardiographic evaluation of diastolic function in diastolic congestive heart failure patients, EPA-E-administered vs non-administered group (Example 2); format: in vivo, human
Protocol: Diastolic congestive heart failure patients were targeted and divided into an EPA-E-administered group and an EPA-E-non-administered group. The EPA-E-administered group received the oral administration of EPA-E (trade name: Epadel; manufactured by Mochida Pharmaceutical Co., Ltd.) at a daily dose of 1800 mg for 6 months. The EPA-E-non-administered group received neither EPA nor its derivative during the test period. Another hypotensive or antilipidemic agent was not administered to any of these groups during the test period. The diastolic function of each patient was evaluated by echocardiography before the start of the test and after the completion of the test (6 months later). The evaluation items used were 1) a ratio of a peak filling velocity of early diastolic transmitral flow (a peak filling velocity of mitral inflow during early diastole: E) to a peak filling velocity of atrial systolic transmitral flow (a peak filling velocity of mitral inflow during atrial contraction: A) (E/A ratio), 2) the time required for the peak filling velocity of mitral inflow during early diastole to reach zero (deceleration time: DT), 3) an early diastolic mitral annulus velocity (E), and 4) an E/E′ ratio. The degree of improvement in these indexes was confirmed for each case corresponding to 1) an E/A ratio<1.0, 2) DT>250 msec, 3) E′<8 cm/s, or 4) an E/E′ ratio>15 as an index for cardiac diastolic dysfunction. The rate of change was determined as an average of % change from the value (defined as 100) before the start to the value after 6 months in each case.

[2] = test system: diastolic congestive heart failure patients; test: as above; format: in vivo, human; conditions: target cases E′ <8 cm/s (18 cases)
[3] = printed as reduction (improvement), average of % change per case, before start to 6 months, 1800 mg/day oral
[4] = printed as rise (improvement), average of % change per case, before start to 6 months, 1800 mg/day oral

Structure (SMILES): CC/C=C\C/C=C\C/C=C\C/C=C\C/C=C\CCCC(=O)OCC [EPA-E, icosapentaenoic acid ethyl ester]
- DT, rate of change [1, 3]: 10.9% reduction
- E/E′ ratio, rate of change [1, 3]: 27.4% reduction
- E/A ratio, rate of change [1, 4]: 3.7% rise
- E′, rate of change [1, 4]: 2.3% rise
- DT (deceleration time), mean after 6 months ([1]; target cases DT >250 msec (6 cases), EPA-E 1800 mg/day oral, 6 months): 241.7 ms
- DT (deceleration time), mean before start ([1]; target cases DT >250 msec (6 cases), baseline before EPA-E 1800 mg/day oral): 271.3 ms
- E/A ratio, mean after 6 months ([1]; target cases E/A ratio <1.0 (14 cases), EPA-E 1800 mg/day oral, 6 months): 0.692
- E/A ratio, mean before start ([1]; target cases E/A ratio <1.0 (14 cases), baseline before EPA-E 1800 mg/day oral): 0.669
- E/E′ ratio, mean after 6 months ([1]; target cases E/E′ ratio >15 (4 cases), EPA-E 1800 mg/day oral, 6 months): 13.14
- E/E′ ratio, mean before start ([1]; target cases E/E′ ratio >15 (4 cases), baseline before EPA-E 1800 mg/day oral): 18.09
- E′ (early diastolic mitral annular velocity), mean after 6 months ([2]; EPA-E 1800 mg/day oral, 6 months): 4.539 cm/s
- E′ (early diastolic mitral annular velocity), mean before start ([2]; baseline before EPA-E 1800 mg/day oral): 4.483 cm/s

Source: patent publication US20140039053A1, “THERAPEUTIC AGENT FOR DIASTOLIC CONGESTIVE HEART FAILURE” (Mochida Pharmaceutical Co., Ltd., priority 2011, published 2014)
